Values after ≈ are worked out from the molar mass of the structure shown.
Columns and labels:
Format in all cases: cell-based
GSC-3 = assay: Soft agar colony (clone) formation, GSC-3; conditions: crystal violet, FIG. 4, compound 3a 0, 5 and 5 [sic] μg/mL
Experimental: (§1) […] of low-melting-point agarose was dissolved in 12.5 mL of ddH2O to prepare a 3.2% low-melting-point agarose gel. The low-melting-point agarose gel was sterilized by autoclaving at 121° C. and 0.12 MPa for 20 minutes. After sterilization, the low-melting-point agarose gel was maintained at 60° C. in a drying oven for further use.
(§2) 1.75 mL of 3.2% sterile low-melting-point agarose gel was taken, 5.25 mL of the corresponding complete medium was added, and the two were mixed thoroughly using a pipette to prepare a base gel at a concentration of 0.8%.
(§3) 1 mL of the base gel was added to each well of a 6-well plate, ensuring that the base gel evenly covered the bottom of each well. The plate was placed at 4° C. for 5 minutes to allow the gel to solidify. After the gel had fully solidified, the plate was warmed at 37° C. for 5 minutes.
(§4) 6 cells/cell lines (U251, SMMC7721, GSC-3, GSC-12, SMMC7721-CSC, and HepG2-CSC) were individually digested with 1× trypsin for 3 minutes. The corresponding complete culture medium (same as in the application example 1) was added to terminate the digestion. Cells were centrifuged at 1000 rpm for 3 minutes, and the cells were collected and counted. A total of 5×10^3 cells were added to each well, each group was set up with three replicates. […]

GSC-12 = assay: Soft agar colony (clone) formation, GSC-12; conditions: crystal violet, FIG. 4, compound 3a 0, 5 and 5 [sic] μg/mL
Experimental: as §1, §2, §3, §4

SMMC7721-CSC = assay: Soft agar colony (clone) formation, SMMC7721-CSC; conditions: crystal violet, FIG. 4, compound 3a 0, 5 and 5 [sic] μg/mL
Experimental: as §1, §2, §3, §4

ASPC1-CSC = assay: MTS cell viability assay, ASPC1-CSC; conditions: Table 6, tumor stem cell, 72 hours; read-out: IC50 against ASPC1-CSC
Experimental: (§5) Primary viability screening: (1) the synthesized compounds 3a to 13d were respectively dissolved in DMSO to prepare a 40 μg/mL cannabicyclol and cannabicyclol derivative solutions.
(§6) (2) A control group: a 200 μL DMSO solvent.
(§7) (3) The solutions of compounds 3a to 13d were diluted in a twofold gradient to obtain cannabicyclol and cannabicyclol derivative solutions at concentrations of 40 μg/mL, 20 μg/mL, 10 μg/mL, 5 μg/mL, 2.5 μg/mL, 1.25 μg/mL, and 0.625 μg/mL, and 0.3125 μg/mL, respectively.
(§8) (4) Three glioblastoma stem cells (GSC-3, GSC-12, and GSC-18), three pancreatic cancer cell-derived stem cells (PANC-1-CSC, BXPC-3-CSC, and ASPC1-CSC), three liver cancer cell-derived stem cells (HepG2-CSC, MHCC97H-CSC, and SMMC7721-CSC), HEK-293T cells, 16 tumor cells (U251, U87, T98G, PANC1, BXPC3, ASPC1, HepG2, MHCC97H, SMMC7721, PC3, SKOV3, MDA-MB231, A549, HCT116, HEC-1B, MKN28), and differentiated glioblastoma stem cells (GSC-3diff and GSC-12diff) derived from GSC-3 and GSC-12 (all of the cells were provided by the Laboratory of Tumor Animal Model Preparation and Application Research, West China Hospital, Sichuan University) were inoculated into a 96-well plate at a concentration of 2×10^4 cells/well, and 100 μL of culture medium was then added to each well; […]
(§9) (10) The absorbance value at 490 nm was measured on an enzyme labeling apparatus, and the IC50 value was calculated.

HepG2-CSC [1] = assay: Soft agar colony (clone) formation, HepG2-CSC; conditions: crystal violet, FIG. 4, compound 3a 0, 5 and 5 [sic] μg/mL
Experimental: as §1, §2, §3, §4

MKN28 = assay: MTS cell viability assay, MKN28; conditions: Homo sapiens, MKN-28; Table 7, 72 hours; read-out: IC50 against MKN28
Experimental: as §5, §6, §7, §8, §9

HepG2-CSC [2] = assay: MTS cell viability assay, HepG2-CSC; conditions: Table 6, tumor stem cell, 72 hours; read-out: IC50 against HepG2-CSC
Experimental: as §5, §6, §7, §8, §9

BXPC3-CSC = assay: MTS cell viability assay, BXPC3-CSC; conditions: Table 6, tumor stem cell, 72 hours; read-out: IC50 against BXPC3-CSC
Experimental: as §5, §6, §7, §8, §9

[3] = test system: 9 types of cancer stem cells; assay: MTS cell viability assay, summary over 9 types of cancer stem cells; conditions: FIG. 3, CBL solution at different concentrations
Experimental: as §5, §6, §7, §8, §9

PANC1-CSC = assay: MTS cell viability assay, PANC1-CSC; conditions: Table 6, tumor stem cell, 72 hours; read-out: IC50 against PANC1-CSC
Experimental: as §5, §6, §7, §8, §9

MHCC97 = assay: MTS cell viability assay, MHCC97; conditions: Homo sapiens, Table 7, 72 hours, read-out: IC50 against MHCC97
Experimental: as §5, §6, §7, §8, §9

CCCCCc1cc(O)c2c(c1)OC1(C)CCC3C1C2C3(C)C (centres unmarked) [Compound 3a, cannabicyclol]
colony formation of GSC-3 (GSC-3): significantly inhibited | colony formation of GSC-12 (GSC-12): significantly inhibited | colony formation of SMMC7721-CSC (SMMC7721-CSC): significantly inhibited | IC50 (ASPC1-CSC): 14.6 µg/mL (≈ 46.3 µM) | colony formation of HepG2-CSC (HepG2-CSC [1]): significantly inhibited | IC50 (MKN28): > 40 µg/mL | IC50 (HepG2-CSC [2]): 2.37 µg/mL (≈ 7.54 µM) | IC50 (BXPC3-CSC): 2.19 µg/mL (≈ 6.96 µM) | cell viability of 9 types of cancer stem cells at different concentrations [3]: decreased with increasing concentrations | IC50 (PANC1-CSC): 13 µg/mL (≈ 41.3 µM) | IC50 (MHCC97): > 40 µg/mL

— patent US20250353825A1, “CANNABICYCLOL DERIVATIVES AND PREPARATION METHODS THEREOF” (priority 2023, published 2025)
